Experiments:
FLK-1 receptor = target: T1, FLK-1 receptor (Mus musculus, UniProt P35918); assay: FLK-1 ELISA (kinase activity of the FLK-1 receptor in FLK-1/NIH3T3 cells, VEGF stimulated); assay type: cell-based
T1 construct: expressed in transfected cells; host or cells: NIH3T3 C7#3
How it was run: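 FLK-1-expressing NIH3T3 C7#3 cells, starved overnight in 0.1% FBS medium, were treated with compounds at a 1:200 final dilution (0.5% DMSO) for 2 h at 37 °C, with VEGF stimulation. FLK-1 kinase activity was read by ELISA on anti-rabbit IgG plates using affinity-purified anti-FLK-1 antiserum.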

PDGF-R = PDGF-R (Homo sapiens, UniProt P09619); assay: PDGF-R ELISA; assay type: cell-based
From the text: A PDGF-R ELISA is described in International Patent Publication No. WO 96/40116, published December 19, 1996 by Tang et al.

PDGF-R, sequence (P09619 33-1106, species assumed): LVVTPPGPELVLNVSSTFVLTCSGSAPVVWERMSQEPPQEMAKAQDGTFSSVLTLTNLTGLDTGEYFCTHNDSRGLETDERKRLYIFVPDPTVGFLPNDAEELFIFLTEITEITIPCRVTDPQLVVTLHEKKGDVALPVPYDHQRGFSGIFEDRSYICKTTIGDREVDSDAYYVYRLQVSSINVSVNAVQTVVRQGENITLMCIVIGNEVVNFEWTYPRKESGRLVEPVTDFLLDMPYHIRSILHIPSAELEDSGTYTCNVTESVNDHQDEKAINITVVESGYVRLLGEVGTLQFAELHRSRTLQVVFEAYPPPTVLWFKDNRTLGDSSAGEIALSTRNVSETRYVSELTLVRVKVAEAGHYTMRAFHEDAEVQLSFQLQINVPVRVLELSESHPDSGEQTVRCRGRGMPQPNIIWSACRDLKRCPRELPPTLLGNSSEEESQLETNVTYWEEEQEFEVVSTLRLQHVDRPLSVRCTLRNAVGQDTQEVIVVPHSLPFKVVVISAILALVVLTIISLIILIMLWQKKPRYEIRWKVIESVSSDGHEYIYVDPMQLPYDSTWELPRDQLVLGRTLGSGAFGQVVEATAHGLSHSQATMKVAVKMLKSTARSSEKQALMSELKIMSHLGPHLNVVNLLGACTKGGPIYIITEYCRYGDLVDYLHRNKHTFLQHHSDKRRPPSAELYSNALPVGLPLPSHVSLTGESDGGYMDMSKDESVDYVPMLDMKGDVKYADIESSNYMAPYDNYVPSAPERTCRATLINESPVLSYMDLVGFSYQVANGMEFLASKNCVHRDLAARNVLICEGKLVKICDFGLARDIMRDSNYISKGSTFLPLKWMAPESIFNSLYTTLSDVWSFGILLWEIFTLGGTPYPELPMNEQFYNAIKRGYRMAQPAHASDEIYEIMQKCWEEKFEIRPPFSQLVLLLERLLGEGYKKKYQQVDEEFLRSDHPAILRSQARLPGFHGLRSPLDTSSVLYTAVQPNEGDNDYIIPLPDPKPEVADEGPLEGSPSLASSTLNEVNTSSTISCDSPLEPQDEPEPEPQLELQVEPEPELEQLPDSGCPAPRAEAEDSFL
T1 sequence (P35918 20-1345): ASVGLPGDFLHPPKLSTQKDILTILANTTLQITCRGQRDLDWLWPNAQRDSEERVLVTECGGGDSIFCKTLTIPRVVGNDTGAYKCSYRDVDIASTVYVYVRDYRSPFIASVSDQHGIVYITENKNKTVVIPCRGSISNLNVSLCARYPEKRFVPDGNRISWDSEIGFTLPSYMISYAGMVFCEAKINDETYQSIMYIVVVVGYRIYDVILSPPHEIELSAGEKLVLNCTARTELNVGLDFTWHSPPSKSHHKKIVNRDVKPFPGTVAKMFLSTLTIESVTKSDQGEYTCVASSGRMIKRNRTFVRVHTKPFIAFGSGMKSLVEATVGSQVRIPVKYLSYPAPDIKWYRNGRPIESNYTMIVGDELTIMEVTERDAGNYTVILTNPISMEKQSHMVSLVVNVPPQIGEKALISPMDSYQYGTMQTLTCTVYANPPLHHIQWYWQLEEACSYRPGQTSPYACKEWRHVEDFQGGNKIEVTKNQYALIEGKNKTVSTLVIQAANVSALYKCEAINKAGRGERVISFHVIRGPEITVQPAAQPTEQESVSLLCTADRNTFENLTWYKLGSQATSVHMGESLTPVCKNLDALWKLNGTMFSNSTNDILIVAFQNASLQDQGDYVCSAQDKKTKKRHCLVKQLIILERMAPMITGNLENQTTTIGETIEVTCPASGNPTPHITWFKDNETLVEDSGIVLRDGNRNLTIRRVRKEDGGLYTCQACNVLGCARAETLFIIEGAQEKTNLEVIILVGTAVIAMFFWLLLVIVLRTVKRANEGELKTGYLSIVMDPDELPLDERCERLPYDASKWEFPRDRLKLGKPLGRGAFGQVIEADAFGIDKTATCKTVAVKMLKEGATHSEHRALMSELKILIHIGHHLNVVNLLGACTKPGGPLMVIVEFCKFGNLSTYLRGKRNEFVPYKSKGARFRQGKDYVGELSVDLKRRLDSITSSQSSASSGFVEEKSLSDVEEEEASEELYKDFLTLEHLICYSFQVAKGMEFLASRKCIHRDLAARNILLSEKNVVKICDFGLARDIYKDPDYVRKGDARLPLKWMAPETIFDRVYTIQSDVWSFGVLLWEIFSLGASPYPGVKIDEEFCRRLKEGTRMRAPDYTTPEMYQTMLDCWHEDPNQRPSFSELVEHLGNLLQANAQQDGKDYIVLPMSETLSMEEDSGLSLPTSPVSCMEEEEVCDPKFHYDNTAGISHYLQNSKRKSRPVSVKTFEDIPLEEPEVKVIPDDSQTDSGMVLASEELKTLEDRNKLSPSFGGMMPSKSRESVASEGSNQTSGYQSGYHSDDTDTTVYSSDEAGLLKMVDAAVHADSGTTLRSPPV

SMILES | Fik Kinase %Inhibition (FLK-1 receptor) [%] | PDGF Kinase %Inhibition (PDGF-R) [%]
CCCCN(CCCC)c1ccc(C=C2C(=O)Nc3c(Br)cc(Br)cc32)cc1 [10722/A10] | 6.6 | 15.2
O=C1Nc2ccc(I)cc2C1=Cc1c(O)cc(O)cc1O [10722/B03] | 13.6 | 3.7
CNS(=O)(=O)c1ccc2c(c1)C(=Cc1ccc[nH]1)C(=O)N2 [10717/D09] | -55.0 | –
CC(C)(C)c1cc(C=C2C(=O)Nc3ccc(S(=O)(=O)N4CCOCC4)cc32)cc(C(C)(C)C)c1O [10721/F11] | 29.7 | –
O=C1Nc2c(Br)cc(Br)cc2C1=Cc1ccc(F)cc1F [10722/A06] | 9.6 | 19.8
CC(C)(C)c1cc(C=C2C(=O)Nc3ccc(S(=O)(=O)Nc4ccc(C(F)(F)F)cc4)cc32)cc(C(C)(C)C)c1O [10721/E11] | 0.7 | –
O=C1Nc2c(Br)cc(Br)cc2C1=Cc1ccc(C(=O)O)cc1 [10722/A05] | 10.5 | 33.5
CCCCN(CCCC)c1ccc(C=C2C(=O)Nc3ccc(S(=O)(=O)NC)cc32)cc1 [10722/D10] | 8.2 | 41.5
CNS(=O)(=O)c1ccc2c(c1)C(=Cc1csc([N+](=O)[O-])c1)C(=O)N2 [10722/D09] | 14.7 | 30.6
Cc1cc(C=C2C(=O)Nc3ccc(S(=O)(=O)N4CCOCC4)cc32)sc1C [10721/F04] | 7.4 | –
CNS(=O)(=O)c1ccc2c(c1)C(=Cc1cccs1)C(=O)N2 [10717/D03] | 1.1 | –
Cc1cc(C=C2C(=O)Nc3ccc(S(=O)(=O)Nc4ccc(C(F)(F)F)cc4)cc32)sc1C [10721/E04] | 16.0 | –
CNS(=O)(=O)c1ccc2c(c1)C(=Cc1c(O)cc(O)cc1O)C(=O)N2 [10722/D03] | 15.0 | -9.4
O=C1Nc2ccc(S(=O)(=O)Nc3ccc(C(F)(F)F)cc3)cc2C1=Cc1cc2c([nH]1)CCCC2 [10721/E05] | 10.8 | –
CNS(=O)(=O)c1ccc2c(c1)C(=Cc1ccc(C(F)(F)F)cc1)C(=O)N2 [10722/D11] | 9.6 | 15.2
O=C1Nc2ccc(S(=O)(=O)Nc3ccc(C(F)(F)F)cc3)cc2C1=Cc1ccc(F)cc1F [10722/E06] | 21.4 | 32.9
CC(C)(C)c1cc(C=C2C(=O)Nc3ccc(S(=O)(=O)N4CCOCC4)cc32)ccc1O [10721/F09] | 65.2 | –
Cn1cc(Cl)c(C=C2C(=O)Nc3ccc(S(=O)(=O)N4CCOCC4)cc32)n1 [10721/F03] | 9.1 | –
CC(C)(C)c1cc(C=C2C(=O)Nc3ccc(S(=O)(=O)Nc4ccc(C(F)(F)F)cc4)cc32)ccc1O [10721/E09] | 36.9 | –
CNS(=O)(=O)c1ccc2c(c1)C(=Cc1cccn1C)C(=O)N2 [10717/D04] | -2.1 | –

SMILES | Fik Kinase %Inhibition (FLK-1 receptor) [%] | PDGF Kinase %Inhibition (PDGF-R) [%]
O=C1Nc2ccc(I)cc2C1=Cc1ccc(C(F)(F)F)cc1 [10722/B11] | 5.2 | 25.5
CCOc1ccccc1C=C1C(=O)Nc2ccc(S(=O)(=O)NC)cc21 [10717/D02] | 5.1 | –
CC(C)(C)c1cc(C=C2C(=O)Nc3ccc(CCCl)cc32)cc(Br)c1O [10721/G10] | 24.4 | –
Cc1cc(C=C2C(=O)Nc3c(Br)cc(Br)cc32)cc(C)c1O [10722/A07] | 9.4 | 23.8
CC(C)(C)c1cc(C=C2C(=O)Nc3ccc(I)cc32)cc(Cl)c1O [10722/B08] | 11.2 | 27.8
O=C1Nc2ccc(S(=O)(=O)Nc3ccc(C(F)(F)F)cc3)cc2C1=Cc1ccc([N+](=O)[O-])s1 [10722/E04] | 38.6 | 30.6
O=C1Nc2ccc(CCCl)cc2C1=Cc1cc2c([nH]1)CCCC2 [10721/G05] | -15.1 | –
Cn1c(C=C2C(=O)Nc3ccc(S(=O)(=O)Nc4ccc(C(F)(F)F)cc4)cc32)nc2ccccc21 [10721/E02] | 17.2 | –
CNS(=O)(=O)c1ccc2c(c1)C(=Cc1cc(C)c(O)c(C)c1)C(=O)N2 [10722/D07] | 14.1 | 25.5
O=C1Nc2ccc(I)cc2C1=Cc1ccc([N+](=O)[O-])s1 [10722/B04] | 14.7 | 3.1
CC(C)(C)c1cc(C=C2C(=O)Nc3ccc(S(=O)(=O)Nc4ccc(C(F)(F)F)cc4)cc32)cc(Br)c1O [10721/E10] | 9.3 | –
CC(C)(C)c1cc(C=C2C(=O)Nc3ccc(S(=O)(=O)Nc4ccc(C(F)(F)F)cc4)cc32)cc([N+](=O)[O-])c1O [10722/E02] | 17.0 | 23.2
O=C1Nc2ccc(S(=O)(=O)N3CCOCC3)cc2C1=Cc1cc2c([nH]1)CCCC2 [10721/F05] | 8.1 | –
O=C1Nc2ccc(S(=O)(=O)Nc3ccc(C(F)(F)F)cc3)cc2C1=Cc1ccc(C(=O)O)cc1 [10722/E05] | 19.2 | 19.2
CNS(=O)(=O)c1ccc2c(c1)C(=Cc1cc(C(C)(C)C)c(O)c(C(C)(C)C)c1)C(=O)N2 [10721/D11] | 20.6 | –
O=C1Nc2ccc(I)cc2C1=Cc1ccc(C(=O)O)cc1 [10722/B05] | 18.5 | 21.5
CC(C)(C)c1cc(C=C2C(=O)Nc3ccc(CCCl)cc32)cc(C(C)(C)C)c1O [10721/G11] | -7.1 | –
O=C1Nc2c(Br)cc(Br)cc2C1=Cc1cccs1 [10717/A03] | 2.9 | –
Cc1cc(C=C2C(=O)Nc3ccc(CCCl)cc32)sc1C [10721/G04] | 3.2 | –
CNS(=O)(=O)c1ccc2c(c1)C(=Cc1ccc(C)s1)C(=O)N2 [10717/D07] | -8.4 | –

SMILES | Fik Kinase %Inhibition (FLK-1 receptor) [%] | PDGF Kinase %Inhibition (PDGF-R) [%]
CC(C)(C)c1cc(C=C2C(=O)Nc3ccc(CCCl)cc32)ccc1O [10721/G09] | 20.4 | –
O=C1Nc2ccc(S(=O)(=O)Nc3ccc(C(F)(F)F)cc3)cc2C1=Cc1cc([N+](=O)[O-])cc(CCl)c1O [10721/E06] | 40.4 | –
CNS(=O)(=O)c1ccc2c(c1)C(=Cc1ccc(F)cc1)C(=O)N2 [10717/D05] | -3.8 | –
Cn1cc(Cl)c(C=C2C(=O)Nc3ccc(CCCl)cc32)n1 [10721/G03] | 12.1 | –
Cn1c(C=C2C(=O)Nc3ccc(S(=O)(=O)N4CCOCC4)cc32)nc2ccccc21 [10721/F02] | 17.0 | –
CNS(=O)(=O)c1ccc2c(c1)C(=Cc1c[nH]c3ccccc13)C(=O)N2 [10717/D06] | 1.0 | –
Cn1cc(Cl)c(C=C2C(=O)Nc3ccc(S(=O)(=O)Nc4ccc(C(F)(F)F)cc4)cc32)n1 [10721/E03] | 10.9 | –
O=C1Nc2ccc(S(=O)(=O)N3CCOCC3)cc2C1=Cc1cc([N+](=O)[O-])cc(CCl)c1O [10721/F06] | 2.2 | –
O=C1Nc2ccc(S(=O)(=O)N3CCOCC3)cc2C1=Cc1ccc(Cl)s1 [10721/F07] | 4.8 | –
CC(C)(C)c1cc(C=C2C(=O)Nc3ccc(S(=O)(=O)N4CCOCC4)cc32)cc(Br)c1O [10721/F10] | 49.6 | –
CNS(=O)(=O)c1ccc2c(c1)C(=Cc1c(O)cccc1OC)C(=O)N2 [10717/D10] | -6.0 | –
Cc1cc(C)c(C=C2C(=O)Nc3ccc(S(=O)(=O)N4CCOCC4)cc32)[nH]1 [10721/F08] | -6.4 | –
CNS(=O)(=O)c1ccc2c(c1)C(=Cc1cc(Br)c(O)c(C(C)(C)C)c1)C(=O)N2 [10721/D10] | 23.7 | –
CNS(=O)(=O)c1ccc2c(c1)C(=Cc1ccc(Br)cc1)C(=O)N2 [10717/D08] | 6.8 | –
Cn1c(C=C2C(=O)Nc3ccc(CCCl)cc32)nc2ccccc21 [10721/G02] | 16.4 | –
O=C1Nc2ccc(CCCl)cc2C1=Cc1cc([N+](=O)[O-])cc(CCl)c1O [10721/G06] | 18.9 | –
Cc1cc(C)c(C=C2C(=O)Nc3ccc(CCCl)cc32)[nH]1 [10721/G08] | 5.4 | –
Cc1cc(C)c(C=C2C(=O)Nc3ccc(S(=O)(=O)Nc4ccc(C(F)(F)F)cc4)cc32)[nH]1 [10721/E08] | 15.7 | –
O=C1Nc2ccc(S(=O)(=O)Nc3ccc(C(F)(F)F)cc3)cc2C1=Cc1ccc(Cl)s1 [10721/E07] | 15.6 | –
O=C1Nc2ccc(CCCl)cc2C1=Cc1ccc(Cl)s1 [10721/G07] | 3.3 | –
